The values below come from ChEMBL document CHEMBL1136513, “Evaluation of vinylsulfamides as sulfhydryl selective alkylation reagents in protein modification” (Bioorg Med Chem Lett, 2003).

Data set [1] in a line: Half-life period at pH 7.2 in the presence of five times more cysteine. Type of data set: ADME.
Data set [2] can be described thus: Half-life period at pH 8.1 in the presence of five times more cysteine. Type of data set: ADME.
Data set [3] can be described thus: Half-life period at pH 8.1 in the presence of five times more lysine. Type of data set: ADME.
The nature of data set [4]: Half-life period at pH 9.2 in the presence of five times more cysteine; ND1 indicates reaction rate was too quick to determine. Type of data set: ADME.
A short description of data set [5]: Half-life period at pH 9.2 in the presence of five times more lysine. Type of data set: ADME.
The nature of data set [6]: Half-life period at pH 7.2 in the presence of five times more lysine; ND2 indicates reaction rate was too slow to measure.

One may read the half-life as the time needed for the level to fall by half in the phase considered. As to `C=CS(=O)(=O)NCc1ccc([N+](=O)[O-])cc1`, the half-life in data set [1] is 1.28 h; in data set [2], 0.45 h; in data set [3], 178 h; in data set [5], 29.6 h. Moreover, the T1/2 result in data set [4] is reported as “Reaction rate too quick”; in data set [6], “Reaction rate too slow”.
